US20060182726A1, “Immunomodulating compositions, processes for their production and uses therefor” (The University of Queensland, priority 2002, published 2006)
Where a SMILES comes first, the peptide text is derived from it. The star is where a group is joined. Cbz = O=C(OCc1ccccc1)*; OtBu = CC(C)(C)O*

Key:
[1] = tested on: human monocyte-derived DC; test: Phenotype of human monocyte-derived DC by flow cytometry; format: cell-based; conditions: human monocytes 48 hours, GM-CSF, IL-4; 10 κM BAY11-7082 or 2.5 or 10 μM PSI; relative to immature DC
Protocol: FIG. 8 is a graphical representation showing that modified human DC lack CD40 compared to immature DC. MDDC were generated for 48 h from PB monocytes in the presence of GM-CSF and IL-4 in the presence (modified DC) or absence (immature DC) of BAY, then stained for various cell surface markers and analysed by flow cytometry.
FIG. 9 is a graphical representation showing that modified human DC are unresponsive to CD40L. MDDC were generated for 48 h from PB monocytes in the presence of GM-CSF and IL-4 in the presence (modified DC) or absence (immature DC) of BAY, washed then incubated with or without 50 ng/ml soluble CD40L. Cells were then stained for CD86 and HLA-DR and analysed by flow cytometry.
FIG. 22 is a graphical representation showing the phenotype of NF-κB^− dendritic cells is reproducible with different NF-κB inhibitors. Dendritic cells were generated from human monocytes for 48 hours in the presence of GM-CSF, IL-4 and in the presence or absence of either 10 μM BAY11-7082 or 2.5 or 10 μM PSI (N-benzyloxycarbonyl-Ile-Glu(O-tert-butyl)-Ala-leucinal). Cells were then stained with anti-CD40, anti-CD86, anti-HLA-DR and anti-MHC class I mAb (green lines) and compared with isotype control staining (purple) by flow cytometry.
Human PB monocytes were purified from PBMC by immunomagnetic selection using anti-CD14. They were incubated for 48 h in the presence of 800 U/mL each GM-CSF and IL-4 in RPMI and 10% FCS in the presence or absence of 8 μM BAY 11-7082. Nuclear extracts were prepared and RelB DNA binding was assessed using ELISA, as previously described (O'Sullivan and Thomas, 2002). […] In keeping with the lack of CD40 expression, modified DC were unresponsive to 24 h incubation with 500 ng/mL soluble CD40 ligand trimer (sCD40L, Immunex, Seattle Wash.).
The present inventors examined whether the phenotype of the described dendritic cells that are capable of inducing tolerance when transferred in vivo, is reproducible when dendritic cells are generated with various NT-κB^− inhibitors. Dendritic cells were generated from human monocles for 48 hours in the presence of GM-CSF, IL-4 and in the presence or absence of either 10 […] of the IκB phosphorylation inhibitor BAY11-7082 or 2.5 or 10 μM of the proteasome inhibitor PSI (N-benzyloxycarbonyl-Ile-Glu(O-tert-butyl)-Ala-leucinal).

NF-κB = conditions: Pierce et al., 1997; cited from earlier work
RelB [2] = test: RelB DNA binding ELISA on nuclear extracts of monocyte-derived DC; format: cell-based; conditions: human PB monocytes 48 h with GM-CSF and IL-4, 8 μM BAY 11-7082
Protocol: FIG. 7 is a graphical representation showing that nuclear extracts from BAY-treated monocyte-derived DC (MDDC) lack RelB-DNA binding and are unresponsive to LPS. MDDC were generated for 48 h from PB monocytes in the presence of GM-CSF and IL-4 in the presence (BAY DC) or absence (control DC) of 8 μM BAY, then stimulated with 1 μg/mL LPS for 24 hr. Nuclear extracts were prepared and analysed for NFkB DNA binding by ELISA.
Human PB monocytes were purified from PBMC by immunomagnetic selection using anti-CD14. They were incubated for 48 h in the presence of 800 U/mL each GM-CSF and IL-4 in RPMI and 10% FCS in the presence or absence of 8 μM BAY 11-7082. Nuclear extracts were prepared and RelB DNA binding was assessed using ELISA, as previously described (O'Sullivan and Thomas, 2002). […]
p50 and RelB DNA binding was detected by ELISA using a Mercury Transfactor p50 Kit (Clontech, Calif.). 10 μg of nuclear extract were bound to wells coated with NF-κB consensus oligonucleotide then incubated with either anti-RelB (sc-226) or anti-p50 (sc-7178), followed by anti-rabbit […] Ig (Silenus) and then detected by measuring color development of TMB at 650 nm using a Multiskan plate reader (Labsystems) (O'Sullivan and Thomas, 2002).

NF-κB subunits = test: Immunoblot of nuclear and cytoplasmic extracts of BMDCs for NF-κB subunits; format: cell-based; conditions: murine BM precursors 6 days with GM-CSF and IL-4 in the presence of BAY
Protocol: To independently assess the relationship between RelB nuclear translocation and tolerance induction, BMDCs were generated in the presence or absence of the compound BAY 11-7082 (BAY). […] Murine BM precursors were incubated for 6 days with GM-CSF and IL-4 to produce BMDCs, in the presence or absence of BAY. All NF-κB subunits were demonstrable in BMDCs generated in the absence of BAY, and were present in both nuclear and cytoplasmic extracts (FIG. 2a). […] However, CD86 was expressed at higher levels in BAY-treated DCs than RelB-deficient DCs. […]
Nuclear and cytoplasmic extracts were prepared as previously described (Pettit et al., 1997) and protein estimations carried out using a Protein Assay kit (Bio-Rad, Hercules, Calif.). […] Following transfer to nitrocellulose (Amersham. Sussex, England), membranes were immunoblotted with either anti-RelB (sc-226), anti-p50 (sc-7178), anti-c-Rel, anti-RelA, or anti-p52 antibodies (all from Santa Cruz Biotechnology) followed by sheep anti-rabbit HRP-conjugated Ig (Silenus, Hawthorn, Australia) and then detected by enhanced chemiluminescence (ECL, Life Technologies, MO, USA) according to the manufacturer's instructions (Amersham).

BMDCs = test: Cell surface marker expression, yield and viability of murine BMDCs generated with BAY (flow cytometry); format: cell-based
Protocol: To independently assess the relationship between RelB nuclear translocation and tolerance induction, BMDCs were generated in the presence or absence of the compound BAY 11-7082 (BAY). […] Murine BM precursors were incubated for 6 days with GM-CSF and IL-4 to produce BMDCs, in the presence or absence of BAY. All NF-κB subunits were demonstrable in BMDCs generated in the absence of BAY, and were present in both nuclear and cytoplasmic extracts (FIG. 2a). […] However, CD86 was expressed at higher levels in BAY-treated DCs than RelB-deficient DCs. […] The ability of adoptively-transferred BAY-treated DCs to prime an mBSA-specific T cell proliferative response in naïve syngeneic mice when pulsed with the antigen mBSA was reduced, compared with mBSA-pulsed untreated BMDCs, or immunisation with mBSA and CFA (FIG. 2c).
According to the inventors' experience, every new batch of BAY needs to be titrated. The final concentration for mouse BMDC cultures may range between 2 and 15 μM. Since tolerance induction correlates precisely with CD40 expression by the DC, varying concentrations of BAY are added to BM DC cultures. At day 6-8, yield is check and viability test using PI and CD40 expression by FACS. […]
BMDCs were incubated for 30 min on ice with anti-CD86-FITC (GL1, PharMingen, San Diego, Calif.), anti-CD11c-PE (HL3, PharMingen), anti-CD11b-PE (M1/70, PharMingen), F4/80-PE (Serotec, Raleigh, N.C.), CD8α-PE (53-6.7, PharMingen), CD3-PE (17A2, PharMingen), or with anti-CD40 (3/23, PharMingen), anti-CD19 (1D3, American Type Culture Collection, ATCC), anti-Ly6-g and c (Gr1, RB6-BC5), anti-CD45R (B220, RA3-6B2, each a gift from G. Hill, Queensland Institute for Medical Research, Brisbane, Q1d), anti-MHC class I and anti-MHC class II (2G9, PharMingen), followed by biotinylated rabbit anti-rat Ig (DAKO, CA) and then streptavidin-FITC (DAKO). After washing, cells were analyzed using a FACScalibur (Becton Dickinson, San Jose, Calif.). Intracellular cytokine production was measured in lymphocytes by flow cytometric staining as described, with minor modifications (Sander et al., 1991). […]

RelB [3] = conditions: LPS-treated monocyte-derived dendritic cells; cited from earlier work
[4] = murine BMDCs generated in the presence of BAY

Row | RelB nuclear DNA binding activity (RelB [2]) | Structure (SMILES) | CD40 expression [1] | CD86 and MHC class I expression [1] | HLA-DR expression [1] | TNF-α-stimulated NF-κB translocation (NF-κB) | NFκB subunit immunoreactivity in nuclear and cytoplasmic extracts (NF-κB subunits) | toxicity: yield and viability of BM DC cultures (BMDCs; concentrations higher than the minimum that suppresses CD40) | MHC class I and class II expression (BMDCs; [4]) | cell surface CD40 expression (BMDCs; [4]) | nuclear RelB translocation (RelB [3])
1 | – | CC[C@H](C)[C@H](NC(=O)OCc1ccccc1)C(=O)N[C@@H](CCC(=O)OC(C)(C)C)C(=O)N[C@@H](C)C(=O)N[C@H](C=O)CC(C)C [PSI, N-benzyloxycarbonyl-Ile-Glu(O-tert-butyl)-Ala-leucinal] (Cbz-IE(OtBu)AL-aldehyde) | CD40 expression was suppressed | CD86 and MHC class I expression were not changed | HLA-DR was reduced | – | – | – | – | – | –
2 | lacked RelB nuclear DNA binding activity | Cc1ccc(S(=O)(=O)/C=C/C#N)cc1 [BAY 11-7082] | CD40 expression was suppressed | CD86 and MHC class I expression were not changed | HLA-DR was reduced | block TNF-α-stimulated NF-κB translocation through inhibition of IκB phosphorylation | in the cytoplasm but not the nucleus | more toxic and affect yield and viability | expressed reduced levels of MHC class I and class II | lacked cell surface CD40 expression | –
3 | – | C[S+]([O-])c1ccc(-c2nc(-c3ccncc3)c(-c3ccc(F)cc3)[nH]2)cc1 (stereo not shown) [SB203580] | – | – | – | – | – | – | – | – | blocks nuclear RelB translocation
